Results reported in US8445492B2, “Method for inhibiting growth of cancer cells and cell telomere and diseases of cell proliferation by using heteroannelated anthraquinone derivative compounds” (National Defense Medical Center, priority 2008, dated 2013).

How the values were obtained:
Format in all cases: cell-based
OVCAR-4 [1] = assay: in vitro test at 1.0×10^−5 M, Ovary cancer cell; settings: 1.0×10^−5 molal concentration (M)
COLO 205 = assay: NCI DTP in-vitro dose response, Colon Cancer
HCC-2998 = assay: NCI DTP in-vitro dose response, Colon Cancer
HCT-116 = assay: NCI DTP in-vitro dose response, Colon Cancer
HCT-15 = assay: NCI DTP in-vitro dose response, Colon Cancer
SF-539 = assay: NCI DTP in-vitro dose response, CNS Cancer
U251 = assay: NCI DTP in-vitro dose response, CNS Cancer
SK-MEL-5 = assay: NCI DTP in-vitro dose response, Melanoma
UACC-62 = assay: NCI DTP in-vitro dose response, Melanoma
OVCAR-3 = assay: NCI DTP in-vitro dose response, Ovarian Cancer
OVCAR-4 [2] = assay: NCI DTP in-vitro dose response, Ovarian Cancer
OVCAR-5 = assay: NCI DTP in-vitro dose response, Ovarian Cancer
OVCAR-8 = assay: NCI DTP in-vitro dose response, Ovarian Cancer
ACHN = assay: NCI DTP in-vitro dose response, Renal Cancer
NCI/ADR-RES = assay: NCI DTP in-vitro dose response, Breast Cancer

`CCc1nc2ccc3c(c2[nH]1)C(=O)c1ccccc1C3=O` [No. 4, 2-Ethyl-1(3)H-anthra[1,2-d]imidazole-6,11-dione] was tested, and the “inhibition effect on cancer cell line (Table 2 value)” value (OVCAR-4 [1]) was 48.81.

`O=C1c2ccccc2C(=O)c2c1ccc1nsnc21` [No. 22, Anthra[2,1-c][1,2,5]thiadiazole-6,11-dione] showed a TGI (COLO 205; COLO 205) of 3.98E−6, a GI50 (COLO 205; Homo sapiens, COLO 205) of 1.97 µM and a CC50 (COLO 205; Homo sapiens, COLO 205, read-out: LC50) of 8.04 µM. For the same compound, the “Percent Growth” value (COLO 205; Log10 Concentration −4.0) was −71%, the “Percent Growth” value (COLO 205; Log10 Concentration −5.0) was −66% and the “Percent Growth” value (COLO 205; Log10 Concentration −6.0) was 98%. The “Percent Growth” value (COLO 205; Log10 Concentration −7.0) was 87%, the “Percent Growth” value (COLO 205; Log10 Concentration −8.0) was 95% and the TGI (HCC-2998; HCC-2998) was 4.20E−6. The GI50 (HCC-2998; Homo sapiens, HCC 2998) was 2.12 µM, the CC50 (HCC-2998; Homo sapiens, HCC 2998, read-out: LC50) was 8.32 µM and the “Percent Growth” value (HCC-2998; Log10 Concentration −4.0) was −70%. For the same compound, the “Percent Growth” value (HCC-2998; Log10 Concentration −5.0) was −63%, the “Percent Growth” value (HCC-2998; Log10 Concentration −6.0) was 105% and the “Percent Growth” value (HCC-2998; Log10 Concentration −7.0) was 103%. The “Percent Growth” value (HCC-2998; Log10 Concentration −8.0) was 109%, the TGI (HCT-116; HCT-116) was 1.06E−5 and the GI50 (HCT-116; Homo sapiens, HCT-116) was 2.84 µM. For the same compound, the CC50 (HCT-116; Homo sapiens, HCT-116, read-out: LC50) was over 100 µM, the “Percent Growth” value (HCT-116; Log10 Concentration −4.0) was −31% and the “Percent Growth” value (HCT-116; Log10 Concentration −5.0) was 1%. The “Percent Growth” value (HCT-116; Log10 Concentration −6.0) was 91%, the “Percent Growth” value (HCT-116; Log10 Concentration −7.0) was 97% and the “Percent Growth” value (HCT-116; Log10 Concentration −8.0) was 99%. For the same compound, the TGI (HCT-15; HCT-15) was 7.80E−6, the GI50 (HCT-15; Homo sapiens, HCT-15) was 2.49 µM and the CC50 (HCT-15; Homo sapiens, HCT-15, read-out: LC50) was 90.6 µM. For the same compound, the “Percent Growth” value (HCT-15; Log10 Concentration −4.0) was −52%, the “Percent Growth” value (HCT-15; Log10 Concentration −5.0) was −11% and the “Percent Growth” value (HCT-15; Log10 Concentration −6.0) was 90%. For the same compound, the “Percent Growth” value (HCT-15; Log10 Concentration −7.0) was 104%, the “Percent Growth” value (HCT-15; Log10 Concentration −8.0) was 110% and the GI50 (SF-539; Homo sapiens, SF-539) was 1.52 µM. For the same compound, the CC50 (SF-539; Homo sapiens, SF-539, read-out: LC50) was 5.38 µM, the “Percent Growth” value (SF-539; Log10 Concentration −4.0) was −98% and the “Percent Growth” value (SF-539; Log10 Concentration −5.0) was −99%. For the same compound, the “Percent Growth” value (SF-539; Log10 Concentration −6.0) was 83%, the “Percent Growth” value (SF-539; Log10 Concentration −7.0) was 84% and the “Percent Growth” value (SF-539; Log10 Concentration −8.0) was 90%. For the same compound, the TGI (SF-539; SF-539) was 2.86E−6, the GI50 (U251; Homo sapiens, U-251) was 1.6 µM and the CC50 (U251; Homo sapiens, U-251, read-out: LC50) was 8.32 µM. For the same compound, the “Percent Growth” value (U251; Log10 Concentration −4.0) was −63%, the “Percent Growth” value (U251; Log10 Concentration −5.0) was −61% and the “Percent Growth” value (U251; Log10 Concentration −6.0) was 78%. The “Percent Growth” value (U251; Log10 Concentration −7.0) was 104%, the “Percent Growth” value (U251; Log10 Concentration −8.0) was 106% and the TGI (U251; U251) was 3.65E−6. The GI50 (SK-MEL-5; Homo sapiens, SK-MEL-5) was 1.13 µM, the CC50 (SK-MEL-5; Homo sapiens, SK-MEL-5, read-out: LC50) was 4.83 µM and the “Percent Growth” value (SK-MEL-5; Log10 Concentration −4.0) was −100%. For the same compound, the “Percent Growth” value (SK-MEL-5; Log10 Concentration −5.0) was −100%, the “Percent Growth” value (SK-MEL-5; Log10 Concentration −6.0) was 58% and the “Percent Growth” value (SK-MEL-5; Log10 Concentration −7.0) was 85%. For the same compound, the “Percent Growth” value (SK-MEL-5; Log10 Concentration −8.0) was 98%, the TGI (SK-MEL-5; SK-MEL-5) was 2.34E−6 and the GI50 (UACC-62; Homo sapiens, UACC-62) was 2.31 µM. The CC50 (UACC-62; Homo sapiens, UACC-62, read-out: LC50) was 96.2 µM, the “Percent Growth” value (UACC-62; Log10 Concentration −4.0) was −50% and the “Percent Growth” value (UACC-62; Log10 Concentration −5.0) was −23%. The “Percent Growth” value (UACC-62; Log10 Concentration −6.0) was 92%, the “Percent Growth” value (UACC-62; Log10 Concentration −7.0) was 91% and the “Percent Growth” value (UACC-62; Log10 Concentration −8.0) was 89%. The TGI (UACC-62; UACC-62) was 6.29E−6, the GI50 (OVCAR-3; Homo sapiens, OVCAR-3) was 2.06 µM and the CC50 (OVCAR-3; Homo sapiens, OVCAR-3, read-out: LC50) was 28.2 µM. The “Percent Growth” value (OVCAR-3; Log10 Concentration −4.0) was −75%, the “Percent Growth” value (OVCAR-3; Log10 Concentration −5.0) was −29% and the “Percent Growth” value (OVCAR-3; Log10 Concentration −6.0) was 86%. The “Percent Growth” value (OVCAR-3; Log10 Concentration −7.0) was 110%, the “Percent Growth” value (OVCAR-3; Log10 Concentration −8.0) was 116% and the TGI (OVCAR-3; OVCAR-3) was 5.59E−6. For the same compound, the GI50 (OVCAR-4 [2]; Homo sapiens, OVCAR-4) was 0.52 µM, the CC50 (OVCAR-4 [2]; Homo sapiens, OVCAR-4, read-out: LC50) was 4.19 µM and the “Percent Growth” value (OVCAR-4 [2]; Log10 Concentration −4.0) was −100%. For the same compound, the “Percent Growth” value (OVCAR-4 [2]; Log10 Concentration −5.0) was −100%, the “Percent Growth” value (OVCAR-4 [2]; Log10 Concentration −6.0) was 32% and the “Percent Growth” value (OVCAR-4 [2]; Log10 Concentration −7.0) was 94%. The “Percent Growth” value (OVCAR-4 [2]; Log10 Concentration −8.0) was 107%, the TGI (OVCAR-4 [2]; OVCAR-4) was 1.76E−6 and the GI50 (OVCAR-5; Homo sapiens, OVCAR-5) was 2.18 µM. The CC50 (OVCAR-5; Homo sapiens, OVCAR-5, read-out: LC50) was 9.06 µM, the “Percent Growth” value (OVCAR-5; Log10 Concentration −4.0) was −58% and the “Percent Growth” value (OVCAR-5; Log10 Concentration −5.0) was −57%. The “Percent Growth” value (OVCAR-5; Log10 Concentration −6.0) was 105%, the “Percent Growth” value (OVCAR-5; Log10 Concentration −7.0) was 94% and the “Percent Growth” value (OVCAR-5; Log10 Concentration −8.0) was 99%. It also gave a TGI (OVCAR-5; OVCAR-5) of 4.44E−6, a GI50 (OVCAR-8; Homo sapiens, OVCAR-8) of 0.859 µM and a CC50 (OVCAR-8; Homo sapiens, OVCAR-8, read-out: LC50) of over 100 µM. For the same compound, the “Percent Growth” value (OVCAR-8; Log10 Concentration −4.0) was −38%, the “Percent Growth” value (OVCAR-8; Log10 Concentration −5.0) was −43% and the “Percent Growth” value (OVCAR-8; Log10 Concentration −6.0) was 46%. The “Percent Growth” value (OVCAR-8; Log10 Concentration −7.0) was 102%, the “Percent Growth” value (OVCAR-8; Log10 Concentration −8.0) was 105% and the TGI (OVCAR-8; OVCAR-8) was 3.28E−6. The TGI (ACHN; ACHN) was 3.33E−6, the GI50 (ACHN; Homo sapiens, ACHN) was 1.71 µM and the “Percent Growth” value (ACHN; Log10 Concentration −4.0) was −39%. For the same compound, the “Percent Growth” value (ACHN; Log10 Concentration −5.0) was −82%, the “Percent Growth” value (ACHN; Log10 Concentration −6.0) was 90% and the “Percent Growth” value (ACHN; Log10 Concentration −7.0) was 114%. The “Percent Growth” value (ACHN; Log10 Concentration −8.0) was 107%, the GI50 (NCI/ADR-RES; Homo sapiens, NCI/ADR-RES) was 0.432 µM and the CC50 (NCI/ADR-RES; Homo sapiens, NCI/ADR-RES, read-out: LC50) was over 100 µM. For the same compound, the “Percent Growth” value (NCI/ADR-RES; Log10 Concentration −4.0) was −17%, the “Percent Growth” value (NCI/ADR-RES; Log10 Concentration −5.0) was −10% and the “Percent Growth” value (NCI/ADR-RES; Log10 Concentration −6.0) was 20%. For the same compound, the “Percent Growth” value (NCI/ADR-RES; Log10 Concentration −7.0) was 102%, the “Percent Growth” value (NCI/ADR-RES; Log10 Concentration −8.0) was 107% and the TGI (NCI/ADR-RES; NCI/ADR-RES) was 4.80E−6.
